“And” between values parts separate entries of the source, which are not always exact repeats. Identical values can stand only once.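 The compound was tested at five concentrations on cells cultured in 96-well plates, with a 48-hour exposure period. GI50: concentration for 50% inhibition of growth. TGI denotes the concentration required for complete inhibition of growth.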
Tests used:
Experiment in all cases: inhibition of tumour cell growth, NCI panel, 48 h
786-0 renal = test system: 786-0 renal
HCT-116 colon = test system: HCT-116 colon
HOP-92 NSCLC = test system: HOP-92 NSCLC
SF-295 CNS = test system: SF-295 CNS
SNB-19 CNS = test system: SNB-19 CNS
SW-620 colon = test system: SW-620 colon

Row | SMILES | GI50 (786-0 renal) | TGI (786-0 renal) | GI50 (HCT-116 colon) | TGI (HCT-116 colon) [µM] | GI50 (HOP-92 NSCLC) | TGI (HOP-92 NSCLC) | GI50 (SF-295 CNS) [µM] | TGI (SF-295 CNS) [µM] | GI50 (SNB-19 CNS) | TGI (SNB-19 CNS) | GI50 (SW-620 colon) | TGI (SW-620 colon)
1 | NC(N)=N/N=C/c1c(-c2ccccn2)nc2sc(Cl)cn12 | 8.45 µM | 16.4 µM | 8.36 µM | 17.3 | 10 µM | 21.3 µM | 6.93 | 13.4 | 7.97 µM | 16 µM | 5.29 µM | 11.8 µM
2 | CNC(=O)c1cc(Oc2ccc(NC(=O)Nc3ccc(Cl)c(OC(F)(F)F)c3)c(F)c2)ccn1 | 4.65 µM | > 33.2 µM | 1.15 µM | 8.08 | 1.53 µM | 16.8 µM | 1.1 | 5.25 | 3.06 µM | 20.7 µM | 2.13 µM | > 33.2 µM
3 | C=C1C(=O)O[C@H]2[C@H]1CC/C(COC(=O)c1cc3cc(OC)ccc3[nH]1)=C\CC[C@@]1(C)O[C@@H]21 | 1.27 µM | 2.68 µM | 0.425 µM | 1.72 | 0.445 µM | 1.83 µM | 2.42 | 10.8 | 1.57 µM | 3.2 µM | 0.647 µM | 2.34 µM
4 | CNC(=O)c1ccc(-c2cnc3ncc(Cc4ccc5ncccc5c4)n3n2)cc1F | 64.3 µM | > 100 µM | > 100 µM | > 100 | 8.54 µM | 91.5 µM | 22.1 | > 100 | > 100 µM | > 100 µM | > 100 µM | > 100 µM
5 | CS(=O)(=O)Nc1ccc(-c2ccc3c(NC(=O)C4CC4)n[nH]c3c2)cc1 | > 25 µM | > 25 µM | > 25 µM | > 25 | > 25 µM | > 25 µM | > 25 | > 25 | > 25 µM | > 25 µM | > 25 µM | > 25 µM
6 | CCCS(=O)(=O)c1nc(NC2CC2)cc(-c2ccc3c(ccn3C3CC(C)(C)NC(C)(C)C3)c2)n1 | 1.21 µM | 2.64 µM | 1.68 µM | 3.22 | 1.46 µM | 3.08 µM | 1.82 | 3.47 |  |  |  | 
7 | CCCCCC(C(O)C#N)C(O)(C(F)(F)F)C(F)(F)F (configuration not stated) |  | > 10 µM |  | > 10 |  | > 10 µM |  | > 10 |  | > 10 µM |  | > 10 µM
8 | COC(=O)c1c(O)ccc2[nH]c(C)c(C#N)c12 | 31.6 µM | > 100 µM | 22 µM | 61.5 | 30.3 µM | 91.9 µM | 27.4 | 92.9 | 77.7 µM | > 100 µM | 45.4 µM | > 100 µM
9 | C=CC(=O)N1CCN(c2ncnc3c(F)c(-c4c(O)cccc4F)c(Cl)cc23)CC1 | 11.4 µM | 25.4 µM | 9.19 µM | 23.1 | 12.8 µM | 33.6 µM | 15.2 | 35.3 | 14 µM | 27.3 µM | 14 µM | 31.9 µM
10 | Cn1c(N)nc2c(nc(OCc3ccccc3)n2C2OC(CO)C(O)C2O)c1=O (configuration not stated) |  | > 100 µM |  | > 100 |  | > 100 µM |  | > 100 |  | > 100 µM |  | > 100 µM
11 | COc1cc(/C=C2\CC3C4CC=C5CC(N6CCCC6)CC[C@]5(C)C4CC[C@]3(C)C2OC(C)=O)ccc1OCCN1CCCC1 (some centres not stated) | 1.73 µM | 3.16 µM | 1.54 µM | 2.87 |  |  | 12.7 | 26.5 | 5.73 µM | 22.8 µM |  | 
12 | CNC(=O)c1cn(C[C@H](F)CCc2ccc(NC(=O)Cc3cc(OC4CC(F)(F)C4)cc(C)n3)nn2)nn1 | > 100 µM | > 100 µM | > 100 µM | > 100 | 23 µM | > 100 µM | > 100 | > 100 | > 100 µM | > 100 µM | > 100 µM | > 100 µM
13 | CC1=C(C)C(=O)O[C@@H]([C@](C)(O)[C@]2(O)CC[C@@]3(O)[C@@H]4C[C@H]5O[C@]56CC=CC(=O)[C@]6(C)[C@H]4CC[C@]23C)C1 | 0.284 µM | 1.96 µM | 0.113 µM | 1.09 | 0.0651 µM | 1.91 µM | 0.62 | 14.7 | 0.395 µM | 13.7 µM | 0.0989 µM | 1.1 µM
14 | CCCNCc1cc(C)cc2c1nc(N1CCNCC1)n2Cc1cc(C)c(F)c(C)c1 | 1.86 µM | 3.96 µM | 2.19 µM | 4.54 | 1.83 µM | 6.49 µM | 1.79 | 3.57 | 2.41 µM | 7.18 µM | 1.96 µM | 4.34 µM
15 | CC(=O)O[C@H]1C(=O)[C@@]2(C)[C@H]([C@H](OC(=O)c3ccccc3)[C@]3([O-])C[C@H](OC(=O)[C@H]([O-])[C@@H](NC(=O)c4ccccc4)c4ccccc4)C(C)=C1C3(C)C)[C@]1(OC(C)=O)CO[C@@H]1C[C@@H]2[O-].[Fe+3] | 0.261 µM and 2.24 µM | 49.1 µM and > 100 µM | 0.0253 µM and 0.0388 µM |  | > 65 µM and 10.5 µM | > 65 µM and 35.7 µM | 0.0836 | > 100 | 0.281 µM and 0.534 µM | 65 µM and > 100 µM | 0.0352 µM and 0.0664 µM | 19.2 µM and 47.4 µM
16 | CCn1c(-c2nonc2N)nc2ccc(F)cc21 | > 25 µM | > 25 µM | > 25 µM | > 25 | 7.36 µM | > 25 µM | > 25 | > 25 | > 25 µM | > 25 µM | > 25 µM | > 25 µM
17 | Clc1ccc(OCc2nnc3n2N=C(c2ccc(Cl)cc2Cl)CS3)c(Cl)c1 | 28.5 µM | 98.8 µM | 15.2 µM | 32.8 | 19.6 µM | 89.2 µM | 23.9 | 79.7 | 34.3 µM | > 100 µM | 31.3 µM | > 100 µM
18 | COc1ccccc1C(=O)c1ccc2ccccc2c1 |  | > 100 µM |  | > 100 |  | 66.5 µM |  | 79.8 |  | 78.4 µM |  | 75.2 µM
19 | Oc1c(Br)cc(CN(Cc2cc(Br)c(O)c(Br)c2)C2CCCCC2)cc1Br |  | > 100 µM |  | > 100 |  | > 100 µM |  | > 100 |  | > 100 µM |  | > 100 µM
20 | C=C1CC(COc2cc(Cl)nc(N)n2)C1 | 49.5 µM |  | 35.1 µM |  | 23.1 µM | 71.5 µM | 34.4 |  | 37.2 µM |  | 45.7 µM | 

From PubChem BioAssay (NCI)
